# In patent publication US20260258003A1, “SLACK-ACTIVATING COMPOUNDS AND THEIR MEDICAL USE” (Johann Wolfgang Goethe-Universität Frankfurt am Main, priority 2023, published 2026):
# Like-named read-outs stand apart in the source and are kept apart here.
# Key:
# human Slack = target: T1, human Slack (Homo sapiens, UniProt Q5JUK3); assay: FluxOR potassium ion channel assay in HEK-Slack cells; type: cell-based; conditions: Na+ free buffer with 2 mM Ca2+, 2 mM Mg2+, 0.03% DMSO; for Emax: read-out: FluxOR assay EMAX (% relative to Loxapine)
# T1 construct: host or cells: HEK293
# T1 sequence (Q5JUK3 1-1230): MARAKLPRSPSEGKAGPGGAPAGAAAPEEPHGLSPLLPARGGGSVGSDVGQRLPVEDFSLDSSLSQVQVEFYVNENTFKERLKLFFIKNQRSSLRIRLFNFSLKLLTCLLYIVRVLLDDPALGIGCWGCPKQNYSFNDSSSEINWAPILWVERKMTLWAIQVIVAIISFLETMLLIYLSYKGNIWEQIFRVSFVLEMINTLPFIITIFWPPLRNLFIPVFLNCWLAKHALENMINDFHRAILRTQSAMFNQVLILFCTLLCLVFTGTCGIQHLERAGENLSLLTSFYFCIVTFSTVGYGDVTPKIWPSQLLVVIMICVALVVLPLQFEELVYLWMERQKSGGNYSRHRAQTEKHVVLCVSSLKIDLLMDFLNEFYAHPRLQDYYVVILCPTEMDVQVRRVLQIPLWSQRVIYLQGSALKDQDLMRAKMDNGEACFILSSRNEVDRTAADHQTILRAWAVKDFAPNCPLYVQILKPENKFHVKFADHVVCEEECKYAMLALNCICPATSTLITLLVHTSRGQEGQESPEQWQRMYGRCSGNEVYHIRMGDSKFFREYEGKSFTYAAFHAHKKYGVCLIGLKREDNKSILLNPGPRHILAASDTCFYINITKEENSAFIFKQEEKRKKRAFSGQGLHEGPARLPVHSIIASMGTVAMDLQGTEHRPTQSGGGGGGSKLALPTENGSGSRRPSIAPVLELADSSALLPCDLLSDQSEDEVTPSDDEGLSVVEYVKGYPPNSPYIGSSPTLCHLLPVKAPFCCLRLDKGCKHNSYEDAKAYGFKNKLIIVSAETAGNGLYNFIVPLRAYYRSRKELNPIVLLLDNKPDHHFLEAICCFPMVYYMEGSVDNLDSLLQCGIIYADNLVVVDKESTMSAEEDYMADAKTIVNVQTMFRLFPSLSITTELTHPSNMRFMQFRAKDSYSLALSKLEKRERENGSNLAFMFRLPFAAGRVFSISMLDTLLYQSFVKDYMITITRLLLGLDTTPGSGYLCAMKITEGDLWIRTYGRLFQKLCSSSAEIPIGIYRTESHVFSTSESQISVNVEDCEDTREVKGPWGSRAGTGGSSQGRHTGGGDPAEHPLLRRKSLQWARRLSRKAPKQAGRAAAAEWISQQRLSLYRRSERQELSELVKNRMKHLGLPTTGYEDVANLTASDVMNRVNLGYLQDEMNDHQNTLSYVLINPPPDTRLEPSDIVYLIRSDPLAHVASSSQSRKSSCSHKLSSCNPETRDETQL
# Method: For that purpose, cultured HEK293 cells stably expressing human Slack (herein referred to as HEK-Slack cells) were incubated with compounds in a Na^+ free buffer to prevent compound-independent Slack activation by monovalent cations^7,19.
# In detail, in these experiments, the Slack-activating efficacy and potency of the novel compounds was determined using a commercial FluxOR™ Potassium Ion Channel Assay (Invitrogen). HEK293 cells stably expressing human Slack (herein referred to as HEK-Slack cells) were plated at a density of 50,000 cells per well of a poly-D-lysine coated (75 μg/mL, Sigma Aldrich) 96-well, black-walled microplate with clear bottom (Greiner Bio-One) in DMEM containing 10% FBS and 1% penicillin/streptomycin 24 hours prior to assaying.
# On the experiment day, cells were loaded with FluxOR™ dye according to the manufacturer's protocol. A Na^+-free assay buffer containing 140 mM choline chloride, 5 mM KCl, 2 mM CaCl2), 2 mM MgSO4, 10 mM HEPES, 5.55 mM glucose, adjusted to pH 7.4 with KOH, was used. To reduce background fluorescence all assay components were complemented by 10% BackDrop™ Background Suppressor (Invitrogen). […]
# After washing steps, cells were incubated with compounds for 30 min at 37° C. All compounds were prepared as a 33.3 mM DMSO stock and diluted at the experimental day to a final concentration of 100, 50, 25, 12.5, 6.25, and 3.125 μM in assay buffer containing […] DMSO. […] After stimulation with Tl2SO4 solution, the fluorescence was measured over 100 s (excitation 485 nm, emission 525 nm) using an Infinite M200 Microplate Reader (Tecan). Assays run in triplicate and the ratio to baseline fluorescence was calculated for all time points. Dose-response curves comprising six concentrations were performed in triplets using fluorescence/fluorescenceBaseline ratios at the 100th second.
# [1] = BBB-specific parallel artificial membrane permeability assay (PAMPA-BBB); type: in vitro ADME, porcine; conditions: pH 7.4, 37° C.; for MR (membrane retention factor): 4 h; for Papp at 4 h, 100 μM: pig, Pe in cm/s, read-out: BBB permeability log Pe (converted)
# Method: BBB permeability was estimated using a BBB-specific parallel artificial membrane permeability assay (PAMPA-BBB). […] Five v/v % DMSO in PBS (Phosphate Buffer Saline; 0.01 M, pH=7.4) buffer solutions of each compound were prepared with the final nominal concentration of 100 μM. These solutions were treated with ultrasonic waves and then centrifuged in case the test compounds were insoluble at this concentration. Proceeding with saturated, homogenous solutions (CD(0)) is sufficient because log Pe only depends on relative concentrations. A BBB specific PAMPA system was used to determine the log Pe and membrane retention (MR). Each well of the top plate (MultiScreen […]10; Millipore; Billerica, US) was carefully coated with 5 μL of porcine polar brain lipid extract (PBLE; Avanti Polar Lipids, Birmingham, US) solution, then 150 μL of the CD(0) solution was put on the membrane. The bottom plate (MultiScreen MDCPN2M50; Millipore, Billerica, US) was filled with […] PBS. PBLE solution consisted of 1 mg PBLE per 10 μL n-dodecane and 30 μL n-hexane. The donor plate was put on the acceptor plate and covered with a wet paper tissue and a plate lid. The sandwich system was incubated at 37° C. for 4 h. The plates were shaken and incubated in a Thermo ScientificTM MaxQTM 4000 Benchtop Orbital Shaker (Gel, Belgium). After the incubation, PAMPA sandwich plates were separated and compound concentrations in donor (CD(t)) and acceptor (CA(t)) solutions were determined by UPLC-MS (Waters, Milford, US). The concentration of the donor solution at zero time point (CD(0)) was determined using the supernatant after centrifugation.
# [2] = mean with 95% confidence interval, read-out: FluxOR assay EC50
# [3] = mean with 95% confidence interval
EC50 (human Slack; [2]) [µM],Emax (human Slack; [3]) [%],MR (membrane retention factor) [1],"Papp at 4 h, 100 μM [1] [nm/s]","EC50 (human Slack; first preliminary experiments, read-out: EC50 value in the first preliminary experiments) [µM]",SMILES
6.3,114,0.64,263,,"CN1CCN(C2=Nc3ccccc3Oc3ccc(C(F)(F)F)cc32)CC1 [Compound 2, 11-(4-Methylpiperazin-1-yl)-2-(trifluoromethyl)dibenzo[b,f][1,4]oxazepine]"
3.2,63.1,0.5,380,,"CN1CCCN(C2=Nc3ccccc3Oc3ccc(C(F)(F)F)cc32)CC1 [Compound 3, 11-(4-Methyl-1,4-diazepan-1-yl)-2-(trifluoromethyl)dibenzo[b,f][1,4]oxazepine]"
41.5,199,0.74,214,,"CN1CCN(C2=Nc3cc(F)ccc3Oc3ccc(C(F)(F)F)cc32)CC1 [Compound 4, 8-Fluoro-11-(4-methylpiperazin-1-yl)-2-(trifluoromethyl)dibenzo[b,f][1,4]oxazepine]"
26,223,0.03,398,,"OCCN1CCN(C2=Nc3ccccc3Oc3ccc(Cl)cc32)CC1 [Compound 5, 2-(4-(2-Chlorodibenzo[b,f][1,4]oxazepin-11-yl)piperazin-1-yl) ethan-1-ol]"
30,87.4,0.19,537,,"OCCOCCN1CCN(C2=Nc3ccccc3Sc3ccc(Cl)cc32)CC1 [Compound 7, 2-(2-(4-(2-Chlorodibenzo[b,f][1,4]thiazepin-11-yl)piperazin-1-yl)ethoxy) ethan-1-ol]"
62.5,177,,263,,"O=C(O)COCCN1CCN(C2=Nc3ccccc3Oc3ccc(C(F)(F)F)cc32)CC1 [Compound 8, 2-(2-(4-(2-(Trifluoromethyl)dibenzo[b,f][1,4]oxazepin-11-yl)piperazin-1-yl)ethoxy) acetic acid]"
50.9,186,−0.10,355,,"O=C(O)COCCN1CCCN(C2=Nc3ccccc3Oc3ccc(C(F)(F)F)cc32)CC1 [Compound 9, 2-(2-(4-(2-(Trifluoromethyl)dibenzo[b,f][1,4]oxazepin-11-yl)-1,4-diazepan-1-yl)ethoxy) acetic acid]"
22.1,120,0.02,,,"O=c1nc(CN2CCN(C3=Nc4ccccc4Oc4ccc(Cl)cc43)CC2)[nH][nH]1 [Compound 10, 5-((4-(2-Chlorodibenzo[b,f][1,4]oxazepin-11-yl)piperazin-1-yl)methyl)-1,2-dihydro-3H-1,2,4-triazol-3-one]"
20.7,100,0.33,,23.4,"CN1CCN(C2=Nc3ccccc3Oc3ccc(Cl)cc32)CC1 [Loxapine, 2-chloro-11-(4-methylpiperazin-1-yl)dibenzo[b,f][1,4]oxazepine, reference compound]"

SMILES,EC50 (human Slack; [2]) [µM],Emax (human Slack; [3]) [%],MR (membrane retention factor) [1],"Papp at 4 h, 100 μM [1] [nm/s]","EC50 (human Slack; first preliminary experiments, read-out: EC50 value in the first preliminary experiments) [µM]"
"O=C(O)COCCN1CCN(C2=Nc3ccccc3Oc3ccc(Cl)cc32)CC1 [Compound 6, 2-(2-(4-(2-Chlorodibenzo[b,f][1,4]oxazepin-11-yl)piperazin-1-yl)ethoxy) acetic acid]",30.3,96.2,,245,
